Reference: publication PMC12430544 (Molecules, 2025)
Several values for one entry are separate records, joined by “and”; a condition that tells them apart may be missing. Equal values may be shown once.

Experiments:
[1] = target: T1, acetylcholinesterase (AChE, from an electric eel) (Electrophorus electricus, UniProt O42275); assay: biochemical; conditions: for IC50: electric eel AChE, Ellman's method, pH 7.4, means ± SEM of at least three experiments, read-out: IC50 AChE Inhibition; for Selectivity Index = IC50 (AChE)/IC50 (BuChE): ratio of eeAChE and equine BuChE IC50
T1 construct: purchased Sigma-Aldrich
Experimental: (§1) Cholinesterase (ChE) inhibitory activity was evaluated using a modified Ellman’s spectrophotometric method. Acetylcholinesterase (AChE, from electric eel), butyrylcholinesterase (BuChE, from equine serum), 5,5′-dithiobis-(2-nitrobenzoic acid) (Ellman’s reagent, DTNB), S-butyrylthiocholine iodide (BTCI), acetylthiocholine iodide (ATCI), and tarcine hydrochloride were purchased from Sigma-Aldrich. Tarcine hydrochloride was used as a reference standard. All the assays were carried out in 0.1 M KH2PO4/K2HPO4 buffer (pH = 7.4). Stock solutions of tested compounds (10 mM) were prepared in DMSO (below 0.5%, v/v) and diluted in phosphate buffer. The assay was performed in 96-well plate by adding 25 μL of 1 mM acetylthiocholine iodide or butyrylthiocholine iodide used as substrate in the assay, 125 μL of 1 mM 5,5′-dithiobis-(2-nitrobenzoic acid) (DTNB), 25 μL of 0.1 M phosphate buffer (pH = 7.4), 25 μL of testing substance in various concentrations, and 50 μL of 0.2 Units/mL AChE from an electric eel or BuChE from equine serum, respectively. At least five concentrations of the test compounds were assayed. […] The enzyme activity and the percentage inhibition were determined.

[2] = target: T2, butyrylcholinesterase (BuChE, from horse serum) (Equus caballus, UniProt P81908); assay: biochemical; conditions: equine serum BuChE, Ellman's method, pH 7.4; means ± SEM of at least three experiments; read-out: IC50 BuChE Inhibition
T2 construct: purchased Sigma-Aldrich
Experimental: as §1

[3] = Metal chelation by UV–vis spectrometry (Fe); assay type: physicochemical
Experimental: (§2) Given the 8-hydroxy(amino)quinoline moiety with the properties to bind metal ions, the abilities of all the compounds in binding metal ions (Cu^II, Fe^III, Zn^II) were studied by UV–vis spectrometry. At first three compounds were chose to test the binding abilities. Upon the addition of CuCl2 or ZnSO4 the maximum absorption suffered a bathochromic shift, pointing out the formation of complex compound–Cu^II. […] […].
(§3) Metal-chelating properties were evaluated by UV–vis spectrometry. To screen the ability of chelating metal ions, the same concentrations of compound and metal ion were mixed in CH3OH/H2O (v/v = 9/1), and the UV–vis spectrum was tested; compared to the compound, the maximum absorption that suffered a bathochromic shift would point out the formation of a complex compound–metal ion. The stoichiometry of the complex compound–metal ion was determined by Job’s method. The affinity of compounds 15–17 as ligands (excepted 15f, 16d, 16g, 16k) for Cu^II or Zn^II were estimated in the CH3OH/H2O solution (v/v = 9/1). Since all the ligands studied L from ML2 species and in accordance with the Beer–Lambert law, complexation reactions can be summarized as 2L+M⇔ML2 with K = 1−α/4C^2α^3 , and α = A/Amax; A was the data of absorption tested when the compound–metal ion = 2/1 under the maximum absorption wavelength of the complex, Amax was the absorption when the compound completely formed a complex with the metal ion; the data can be obtained as an approximation when the metal ion is in excess, and the absorption changes little as the concentration of metal ion still increases.

[4] = Metal chelation by UV–vis spectrometry, stoichiometry and affinity estimate (Zn); assay type: physicochemical; conditions: for LogK Zn (affinity of ligand for Zn^II, ML2): 2L+M⇔ML2; for Maximum absorption of compound–Zn^II complex: bathochromic shift from 246 nm of the free compound
From the text: as §2
(§4) To determine the stoichiometry of the complex compound–Cu^II, the technique of continuous variations (also called Job’s method) was used by preparing solutions of compounds 15a, 17b and CuSO4 so that the sum of concentrations of both species was constant at […] in all samples, but the proportions of both components varied between 0 and 100%. The UV spectra were recorded and the absorbance change at the maximum absorption wavelength of the compound-Cu^II complex, meaning the 15a-Cu^II complex at 264 nm and the 17b-Cu^II at 265 nm, respectively. The absorbance change was plotted versus the mole fraction of the compound, giving two straight lines whose equations were calculated. […] […].
(§5) Since all the ligands studied L from ML2 species and in accordance with the Beer–Lambert law, complexation reactions can be summarized as 2L+M⇔ML2 with K = 1−α/4C^2α^3 , and α can be calculated from the data of the absorption.
as §3

[5] = Metal chelation by UV–vis spectrometry, Job's method and affinity estimate (Cu); assay type: physicochemical; conditions: for LogK Cu (affinity of ligand for Cu^II, ML2): 2L+M⇔ML2; for Mole fraction of compound at the intersection of the Job plot (Cu^II): Job's method, CuSO4, sum of concentrations 20 μm; for Maximum absorption of compound–Cu^II complex: bathochromic shift from 246 nm of the free compound
From the text: as §2, §4, §5, §3

Aβ1–42 = target: T3, Aβ1–42 (Homo sapiens, UniProt P05067); assay: Inhibition of self-induced Aβ1–42 aggregation (ThT fluorescence); assay type: biochemical; conditions: 20 μM compound, thioflavin-T fluorescence, mean ± SD of at least three independent experiments; read-out: Aβ Aggregation Inhibition (%), self-induced Aβ1–42
T3 construct: aggregation of Aβ1–42 synthetic peptide into fibrils
Experimental: Self-induced Aβ1–42 aggregation of all the compounds we obtained was also evaluated. […] ThT is a histochemical dye that is known to bind to the peptide β-sheet conformation, which is the predominant secondary structure of amyloid-beta fibrils. […] The inhibition studies were carried out upon incubating Aβ1–42 with and without the compounds.
Aβ1–42 was dissolved in 100% 1,1,1,3,3,3-[…] (HFIP) to a concentration of 1 mg/mL, sonicated in a water bath overnight, aliquoted into microcentrifuge tubes, dried under vacuum, and stored at −20 °C. Immediately prior to use, the HFIP-treated Aβ1–42 was dissolved in dimethylsulfoxide (DMSO) as the stored solution. […] Amounts of 5 μL of compound (200 μM) and 5 μL of 200 μM Aβ1–42 were added into 40 μL of phosphate-buffered saline (PBS at pH 7.4). After incubation at room temperature on a thermostatic shaker for 72 h, 100 μL of 5 μM ThT solution (in PBS at pH 7.4) was added to the reaction solution. […] The Aβ1–42 aggregation inhibition percentage was calculated using the following formula: inhibition percentage = (F1 − F2)/(F1 − F0) × 100%.

[6] = target: T4, electric eel AChE (eeAChE) (Electrophorus electricus, UniProt O42275); assay: Kinetic study of AChE inhibition (Lineweaver–Burk plots); assay type: biochemical; conditions: 16e at 10, 50 and 100 nM, Lineweaver–Burk plot
T4 construct: purchased Sigma-Aldrich
Experimental: To elucidate the mechanism of AChE’s inhibition by the synthesized hybrids, a detailed enzyme kinetic study was conducted using electric eel AChE (eeAChE).
The slope (Km/Vmax) reflects the apparent enzyme–substrate affinity, whereas the y-intercept (1/Vmax) corresponds to the maximum reaction velocity.
The assay medium contained 25 μL of PBS (pH 7.4), 50 μL of enzyme, 25 μL of compound solution, and 125 μL of 1.0 mM DTNB; the reaction was started by addition of 25 μL of different concentrations of ATC.
The slope (Km/Vmax) reflects the enzyme’s affinity for the substrate in the presence of the inhibitor, while the y-intercept (1/Vmax) indicates the maximum velocity of the reaction.

[7] = design: method as in PMID 17382398; conditions: data from the literature ref 50; cited from earlier work
[8] = design: method as in PMID 17382398; conditions: data from the literature ref 50; cited from earlier work; remark: listed apart in the source

T1 sequence (O42275 24-633): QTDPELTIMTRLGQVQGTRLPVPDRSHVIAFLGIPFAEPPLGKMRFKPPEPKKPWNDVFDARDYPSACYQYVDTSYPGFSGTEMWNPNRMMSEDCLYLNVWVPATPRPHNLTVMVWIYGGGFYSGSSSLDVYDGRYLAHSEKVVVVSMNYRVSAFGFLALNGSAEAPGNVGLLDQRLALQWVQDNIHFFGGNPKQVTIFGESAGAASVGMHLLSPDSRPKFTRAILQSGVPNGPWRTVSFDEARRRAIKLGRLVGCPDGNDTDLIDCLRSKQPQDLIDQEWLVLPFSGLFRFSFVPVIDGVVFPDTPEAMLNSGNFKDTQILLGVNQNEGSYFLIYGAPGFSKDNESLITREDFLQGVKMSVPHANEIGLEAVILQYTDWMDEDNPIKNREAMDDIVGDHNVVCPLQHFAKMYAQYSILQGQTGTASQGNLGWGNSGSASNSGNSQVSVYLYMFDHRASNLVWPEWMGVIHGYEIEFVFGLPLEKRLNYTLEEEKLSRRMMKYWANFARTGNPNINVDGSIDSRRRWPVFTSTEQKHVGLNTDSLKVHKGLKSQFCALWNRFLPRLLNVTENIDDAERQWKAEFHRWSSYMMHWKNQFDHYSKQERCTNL
T2 sequence (P81908 whole entry): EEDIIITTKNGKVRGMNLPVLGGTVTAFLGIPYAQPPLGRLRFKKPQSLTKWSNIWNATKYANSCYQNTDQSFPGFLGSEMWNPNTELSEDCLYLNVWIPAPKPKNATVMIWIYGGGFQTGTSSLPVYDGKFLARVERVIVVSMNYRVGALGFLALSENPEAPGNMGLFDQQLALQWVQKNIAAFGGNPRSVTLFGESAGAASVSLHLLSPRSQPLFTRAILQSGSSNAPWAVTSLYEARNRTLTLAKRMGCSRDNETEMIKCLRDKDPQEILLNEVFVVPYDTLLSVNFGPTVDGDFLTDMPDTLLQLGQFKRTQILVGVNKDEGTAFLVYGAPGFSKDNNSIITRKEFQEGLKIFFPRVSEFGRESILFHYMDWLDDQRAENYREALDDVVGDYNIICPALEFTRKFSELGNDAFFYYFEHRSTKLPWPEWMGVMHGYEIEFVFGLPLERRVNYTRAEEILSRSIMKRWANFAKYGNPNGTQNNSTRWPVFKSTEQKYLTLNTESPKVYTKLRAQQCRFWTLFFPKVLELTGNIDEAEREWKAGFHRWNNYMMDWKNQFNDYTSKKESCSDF
T3 sequence (P05067 672-713): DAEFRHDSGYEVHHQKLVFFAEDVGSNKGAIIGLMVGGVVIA
T4 sequence (O42275 24-633): as the sequence (O42275 24-633) above

Row | Compound | IC50 [1] | Selectivity Index = IC50 (AChE)/IC50 (BuChE) [1] | IC50 [2] | Complex formation with Fe^III (UV–vis shift) [3] | LogK Zn (affinity of ligand for Zn^II, ML2) ([4]; CH3OH/H2O (v/v = 9/1)) | Maximum absorption of compound–Zn^II complex [4] | LogK Cu (affinity of ligand for Cu^II, ML2) ([5]; CH3OH/H2O (v/v = 9/1), UV–vis) | Mole fraction of compound at the intersection of the Job plot (Cu^II) [5] | Maximum absorption of compound–Cu^II complex ([5]; UV–vis) | inhibition at 20 µM (Aβ1–42) | Type of AChE inhibition [6] | Complex formation with Zn^II (UV–vis shift / binding) ([4]; CH3OH/H2O (v/v = 9/1)) | Complex formation with Cu^II (UV–vis shift / binding) ([5]; UV–vis, CH3OH/H2O (v/v = 9/1)) | LogK Zn, value in parentheses [7] | LogK Cu, value in parentheses [8]
1 | O=C(CN1CCN(Cc2ccc3cccc(O)c3n2)CC1)Nc1c2c(nc3ccccc13)CCCC2 [Compound 15a, 2-(4-((8-Hydroxyquinolin-2-yl)methyl)piperazin-1-yl)-N-(1,2,3,4-tetrahydroacridin-9-yl)acetamide] | 2020 ± 120 nM | 0.26 | 7740 ± 890 nM | no reliable shift | 9.91 | 266 nm and 262 nm | 10.14 | around 0.7 | 264 nm | 46.8 ± 4.1% | – | – | – | – | –
2 | Oc1cccc2ccc(CN3CCN(CCCNc4c5c(nc6ccccc46)CCCC5)CC3)nc12 [Compound 16e, 2-((4-(3-((1,2,3,4-Tetrahydroacridin-9-yl)amino)propyl)piperazin-1-yl)methyl)quinolin-8-ol] | 100 ± 3.2 nM | 2.33 | 43 ± 5 nM | – | 9.63 | – | 9.46 | – | – | 80.5 ± 4.4% | mixed-type inhibition | – | – | – | –
3 | Nc1cccc2ccc(CN3CCN(CCCNc4c5c(nc6ccccc46)CCCC5)CC3)nc12 [Compound 16g, N-(3-(4-((8-aminoquinolin-2-yl)methyl)piperazin-1-yl)propyl)-1,2,3,4-tetrahydroacridin-9-amine] | 52 ± 1 nM | 2.89 | 18 ± 3 nM | no reliable shift | – | – | – | – | – | 94.6 ± 4.2% | – | no reliable shift | no reliable shift | – | –
4 | Cc1ccc2c(CN3CCN(CC(=O)Nc4c5c(nc6ccccc46)CCCC5)CC3)ccc(O)c2n1 [Compound 17b, 2-(4-((8-Hydroxy-2-methylquinolin-5-yl)methyl)piperazin-1-yl)-N-(1,2,3,4-tetrahydroacridin-9-yl)acetamide] | 2530 ± 200 nM | 0.58 | 4390 ± 270 nM | no reliable shift | 9.71 | 262 nm | 9.42 | around 0.7 | 265 nm | 23.3 ± 3.2% | – | – | – | – | –
5 | Oc1c(I)cc(Cl)c2cccnc12 [clioquinol, reference compound] | – | – | – | – | 8.38 | – | 9.86 | – | – | – | – | – | – | 8.84 | 10.08
